Laboratory results as given in the supplement of paper PMC10307832.

Experiments:
Assay in all cases: relative viability (nuclei count vs DMSO), 5 days (fraction); higher = more cells survive
Masitinib + Decitabine = compound: Cc1ccc(NC(=O)c2ccc(CN3CCN(C)CC3)cc2)cc1Nc1nc(-c2cccnc2)cs1 [Masitinib] + Nc1ncn([C@H]2C[C@H](O)[C@@H](CO)O2)c(=O)n1 [Decitabine] (partner 2 µM)
Method in brief: (§1)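 Cells from lung cancer lines were seeded into 1536-well plates and, one day later, dosed by pin tool. Treatments were either a single drug or a fixed dose of an anchor drug with five library-drug doses (not always all listed) in √10 steps. After 5 days, nuclei were stained in a one-step fixation (final 0.05% Triton X-100, 1% formaldehyde, 1 ug/ml Hoechst) and counted on 4× images, and relative viability is the treated-to-vehicle nuclei ratio, as the median of duplicate plates.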

[1] = compound: CC1=CC(=CC=C1)NC2=NC(=CS2)C3=CC=NC=C3 + COc1cc2c(Oc3ccc(NC(=O)C4(C(=O)Nc5ccc(F)cc5)CC4)cc3F)ccnc2cc1OCCCN1CCOCC1 [Foretinib] (partner 0.25 µM)
Method in brief: as §1

[2] = compound: CC1=CC(=CC=C1)NC2=NC(=CS2)C3=CC=NC=C3 + Nc1ncn([C@H]2C[C@H](O)[C@@H](CO)O2)c(=O)n1 [Decitabine] (partner 2 µM)
Method in brief: as §1

Masitinib + Navitoclax = compound: Cc1ccc(NC(=O)c2ccc(CN3CCN(C)CC3)cc2)cc1Nc1nc(-c2cccnc2)cs1 [Masitinib] + CC1(C)CCC(c2ccc(Cl)cc2)=C(CN2CCN(c3ccc(C(=O)NS(=O)(=O)c4ccc(N[C@H](CCN5CCOCC5)CSc5ccccc5)c(S(=O)(=O)C(F)(F)F)c4)cc3)CC2)C1 [Navitoclax] (partner 0.5 µM)
Method in brief: as §1

| Cell Line | relative viability (Masitinib + Decitabine; first compound 0.01 µM) | relative viability (Masitinib + Decitabine; first compound 0.03162 µM) | relative viability (Masitinib + Decitabine; first compound 0.1 µM) | relative viability (Masitinib + Decitabine; first compound 0.3162 µM) | relative viability (Masitinib + Decitabine; first compound 1 µM) | relative viability ([1]; first compound 0.253 µM) | relative viability ([1]; first compound 0.8 µM) | relative viability ([1]; first compound 2.53 µM) | relative viability ([1]; first compound 8 µM) | relative viability ([2]; first compound 0.08 µM) | relative viability ([2]; first compound 0.8 µM) | relative viability ([2]; first compound 8 µM) | relative viability (Masitinib + Navitoclax; first compound 0.01 µM) | relative viability (Masitinib + Navitoclax; first compound 0.03162 µM) | relative viability (Masitinib + Navitoclax; first compound 0.1 µM) | relative viability (Masitinib + Navitoclax; first compound 0.3162 µM) | relative viability (Masitinib + Navitoclax; first compound 1 µM) | relative viability ([1]; first compound 0.08 µM) | relative viability ([2]; first compound 0.253 µM) | relative viability ([2]; first compound 2.53 µM) |
| --- | --- | --- | --- | --- | --- | --- | --- | --- | --- | --- | --- | --- | --- | --- | --- | --- | --- | --- | --- | --- |
| NCI-H727 | 0.808 | 1.03 | 0.763 | 0.729 | 0.781 | 0.837 | 0.785 | 0.79 | 0.71 | 0.88 | 0.864 | 0.836 | 0.424 | 0.431 | 0.385 | 0.347 | 0.434 |  |  |  |
| NCI-H838 | 0.446 | 0.475 | 0.432 | 0.445 | 0.44 | 0.861 | 0.923 | 1.04 | 0.866 | 0.458 | 0.501 | 0.457 | 1.06 | 0.936 | 1.14 | 1.01 | 1.11 | 0.838 | 0.473 | 0.448 |
| NCI-H1355 | 0.351 | 0.345 | 0.393 | 0.341 | 0.367 | 0.749 | 0.663 | 0.685 | 0.71 | 0.347 | 0.351 | 0.356 | 0.956 | 0.842 | 1 | 0.754 | 0.946 | 0.882 | 0.311 | 0.318 |
| NCI-H1395 | 0.734 | 0.705 | 0.694 | 0.703 | 0.62 | 0.918 | 0.933 | 0.958 | 1 | 0.666 | 0.685 | 0.761 | 1.25 | 1.17 | 1.11 | 1.1 | 1.05 | 0.859 |  | 0.677 |
| NCI-H1437 | 0.559 | 0.565 | 0.582 | 0.524 | 0.527 | 1.21 | 1.11 | 1.27 | 1.12 | 0.593 | 0.742 | 0.48 | 1.07 | 1.01 | 1.08 | 1.1 | 1.06 | 1.16 | 0.521 | 0.384 |
| NCI-H1650 | 0.438 | 0.391 | 0.411 | 0.493 | 0.345 | 1.13 | 1.04 | 1.22 | 1.13 | 0.384 | 0.478 | 0.378 | 1.25 | 0.981 | 1.15 | 1.13 | 1.14 | 1.13 | 0.38 | 0.408 |
| NCI-H1651 | 0.551 | 0.674 | 0.595 | 0.598 | 0.584 | 0.736 | 0.72 | 0.917 | 0.862 | 0.558 | 0.66 | 0.628 | 1.11 | 1 | 1.15 | 1.02 | 1.1 | 0.825 | 0.55 | 0.475 |
| NCI-H1666 | 0.698 | 0.665 | 0.703 | 0.626 | 0.647 | 0.905 | 0.81 | 0.767 | 0.642 | 0.682 | 0.67 | 0.636 | 0.933 | 0.778 | 0.915 | 0.782 | 0.88 | 0.929 | 0.691 | 0.472 |
| NCI-H1734 | 0.539 | 0.485 | 0.546 | 0.522 | 0.483 | 0.84 | 0.816 | 0.873 | 0.794 | 0.446 | 0.457 | 0.463 | 0.861 | 0.779 | 1 | 0.933 | 0.842 | 0.821 | 0.417 | 0.507 |
| NCI-H1755 | 0.612 | 0.711 | 0.733 | 0.709 | 0.647 | 0.835 | 0.823 | 0.758 | 0.664 | 0.654 | 0.701 | 0.604 |  | 0.975 | 1.1 | 0.931 | 0.894 | 0.862 | 0.702 | 0.617 |
| NCI-H1793 | 0.486 | 0.509 | 0.502 | 0.53 | 0.591 | 0.663 | 0.573 | 0.64 | 0.629 | 0.513 | 0.489 | 0.238 | 0.456 | 0.446 | 0.401 | 0.41 | 0.404 | 0.65 | 0.481 | 0.472 |
| NCI-H1915 |  | 0.239 |  | 0.241 | 0.246 | 1.1 | 1.06 | 1.07 | 0.977 | 0.244 | 0.262 | 0.261 |  | 0.755 | 0.717 | 0.737 | 0.777 | 1.05 | 0.277 | 0.276 |
| NCI-H1944 |  | 0.398 |  | 0.423 | 0.384 | 0.85 | 0.862 | 0.75 | 0.777 | 0.367 | 0.399 | 0.389 |  | 1.02 | 0.799 | 1 | 0.995 | 0.863 | 0.426 | 0.361 |
| NCI-H1975 | 0.324 | 0.417 | 0.381 | 0.293 | 0.34 | 0.704 | 0.837 | 0.617 | 0.633 | 0.326 | 0.381 | 0.245 | 1.15 | 1.09 | 1.14 | 0.92 | 1.01 | 0.687 | 0.336 | 0.356 |
| NCI-H1993 | 0.49 | 0.545 | 0.534 | 0.459 | 0.496 | 0.635 | 0.649 | 0.703 | 0.669 | 0.565 | 0.483 | 0.502 | 0.921 |  | 0.944 | 0.651 | 0.885 | 0.684 | 0.561 | 0.485 |
